Our source for the IC50 values is patent US7736624B2, “Methods and compositions for diagnostic and therapeutic targeting of COX-2” (priority 2006, dated 2010).

The target of assay [1] is T1, COX-2 (Mus musculus, UniProt Q05769).
T1 construct: metabolism by the newly synthesized COX-2; endogenous in cells
T1 sequence (Q05769 18-604): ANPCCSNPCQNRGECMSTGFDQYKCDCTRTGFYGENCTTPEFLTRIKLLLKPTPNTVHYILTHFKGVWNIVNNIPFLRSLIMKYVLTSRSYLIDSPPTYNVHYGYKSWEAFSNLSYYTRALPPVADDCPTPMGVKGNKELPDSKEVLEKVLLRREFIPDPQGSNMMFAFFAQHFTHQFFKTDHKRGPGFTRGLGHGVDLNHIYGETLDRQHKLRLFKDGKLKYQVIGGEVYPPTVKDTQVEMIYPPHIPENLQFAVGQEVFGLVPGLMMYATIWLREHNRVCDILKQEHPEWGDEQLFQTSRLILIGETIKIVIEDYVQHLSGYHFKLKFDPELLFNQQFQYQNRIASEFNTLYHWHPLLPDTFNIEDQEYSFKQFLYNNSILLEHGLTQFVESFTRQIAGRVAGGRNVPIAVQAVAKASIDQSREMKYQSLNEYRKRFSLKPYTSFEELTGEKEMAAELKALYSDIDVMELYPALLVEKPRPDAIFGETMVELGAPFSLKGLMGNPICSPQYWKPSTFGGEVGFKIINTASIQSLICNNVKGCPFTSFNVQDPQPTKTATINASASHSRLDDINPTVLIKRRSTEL
The assay can be described thus: Macrophage assay (RAW264.7), COX-2. It is filed as cell-based, murine. The source says:
Thus, NSAID derivatives that are identified as potentially useful in the methods described herein can be further tested using, for example, the RAW264.7 murine macrophage cell line. These cells are readily available (for example, from the American Type Culture Collection (ATCC), Manassas, Va., United States of America) and are easily cultured in large numbers. They normally express low levels of COX-1 and very low to undetectable levels of COX-2. Upon exposure to bacterial lipopolysaccharide (LPS), however, COX-2 levels increase dramatically over the ensuing 24 hour period, and the cells produce PGD2 and PGE2 from endogenous arachidonic acid stores (generally, ˜1 nmol/10^7 cells total PG formation). After LPS exposure, the addition of exogenous arachidonic acid results in the formation of additional PGD2 and PGE2 as a result of metabolism by the newly synthesized COX-2.
This system provides a number of approaches for testing the inhibitory potency of COX-2-selective ligands (e.g., inhibitors). In general, following LPS activation, cells can be treated for 30 minutes with the desired concentrations of candidate derivative(s) in DMSO. ^14C-arachidonic acid can be added, and the cells can be incubated for 15 minutes at 37° C. Product formation can be assessed following extraction and TLC separation of the culture medium. Alternatively, the effects of candidate derivatives on PG synthesis from endogenous arachidonic acid can be assessed by incubating cells with desired concentrations of candidate derivatives 30 minutes prior to LPS exposure. Following a 24-hour incubation, medium can be collected and extracted, and the amount of PGD2 and/or PGE2 can be assayed by gas chromatography-mass spectrometry, liquid chromatography-mass spectrometry, or ELISA.

Assay [2] deals with T2, COX-2 (Homo sapiens, UniProt P35354).
T2 sequence (P35354 18-604): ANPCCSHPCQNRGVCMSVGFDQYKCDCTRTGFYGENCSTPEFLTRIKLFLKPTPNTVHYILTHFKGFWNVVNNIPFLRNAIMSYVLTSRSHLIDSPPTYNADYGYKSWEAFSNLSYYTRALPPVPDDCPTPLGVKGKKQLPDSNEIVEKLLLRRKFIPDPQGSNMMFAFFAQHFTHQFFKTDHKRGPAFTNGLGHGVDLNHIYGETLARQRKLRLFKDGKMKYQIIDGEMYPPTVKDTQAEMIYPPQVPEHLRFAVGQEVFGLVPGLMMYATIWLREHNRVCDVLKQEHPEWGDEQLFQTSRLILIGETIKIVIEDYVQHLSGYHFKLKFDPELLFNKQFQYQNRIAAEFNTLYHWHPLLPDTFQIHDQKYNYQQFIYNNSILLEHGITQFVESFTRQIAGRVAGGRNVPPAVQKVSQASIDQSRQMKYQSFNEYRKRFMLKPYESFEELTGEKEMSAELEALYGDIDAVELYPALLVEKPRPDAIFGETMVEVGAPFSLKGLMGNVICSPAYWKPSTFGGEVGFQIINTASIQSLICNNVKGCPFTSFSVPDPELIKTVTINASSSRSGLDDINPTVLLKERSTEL
The assay can be described thus: IC50 determinations using purified enzymes (TLC assay), COX-2. It is filed as biochemical. On the set-up: made in house; host or cells: Sf9 insect cells. The note with it: assayed against purified enzymes, read-out: IC50 COX-2.

The mark [3] stands for this setting: Table 3, macrophage assay, read-out: IC50 COX-2.

Like-named read-outs stand apart in the source and are kept apart here.

As usually defined, the IC50 is the concentration that gives 50% inhibition. Turning to `COc1ccc2c(c1)c(CC(=O)NCCCCNC(=O)c1ccc(C(=O)O)c(-c3c4ccc(=O)cc-4oc4cc(O)ccc34)c1)c(C)n2C(=O)c1ccc(Cl)cc1` [Compound 27qq, N-[(Fluorescein-6-carboxylamido)but-4-yl]-2-[1-(4-chlorobenzoyl)-5-methoxy-2-methyl-1H-indol-3-yl)acetamide], the IC50 was 1.88e-07 M on COX-2 [1] (setting [3]) and greater than 25000 nM on COX-2 [2] (Table 3).
Regarding `COc1ccc2c(c1)c(CC(=O)NCCNS(=O)(=O)c1cccc3c(N(C)C)cccc13)c(C)n2C(=O)c1ccc(Cl)cc1` [Compound 27x], the results for the IC50 at COX-2 [1] (setting [3]) and on COX-2 [2] (Table 3) were 3e-08 M and 66 nM, respectively.
Regarding `COc1ccc2c(c1)c(CC(=O)NCCCCNC(=O)c1ccc(C(=O)[O-])c(C3=c4cc5c6c(c4Oc4c3cc3c7c4CCCN7CCC3)CCC[N+]=6CCC5)c1)c(C)n2C(=O)c1ccc(Cl)cc1` [Compound 27vv], the IC50 at COX-2 [2] (Table 3) was found to be 3500 nM.
As for `CC[N+](CC)=c1ccc2nc3c(cc(NC(=O)CCOCCOCCOCCOCCNC(=O)Cc4c(C)n(C(=O)c5ccc(Cl)cc5)c5ccc(OC)cc45)c4ccccc43)oc-2c1` [Compound 27uu, N-[5-)1-{1-(4-chlorobenzoyl)-5-methoxy-2-methyl-1H-indol-3-yl}-2-6,9,12,15-tetraoxa-3-azaoctadecanamido]-9H-benzo[a]penoxazin-9-ylidene)-N-ethylethanaminium perchlorate], the IC50 on COX-2 [1] (setting [3]) came to 8.5e-08 M; at COX-2 [2] (Table 3), 1700 nM.
Turning to `COc1ccc2c(c1)c(CC(=O)NCCNS(=O)(=O)c1ccc(/N=N/c3ccc(N(C)C)cc3)cc1)c(C)n2C(=O)c1ccc(Cl)cc1` [Compound 27aa, N-(2-Dabsylaminoethyl)-2-{1-(4-chlorobenzoyl)-5-methoxy-2-methyl-1H-indol-3-yl}acetamide], the results for the IC50 on COX-2 [1] (setting [3]) and on COX-2 [2] (Table 3) were 1.8e-07 M and 80 nM, respectively.
Taken in the same sequence, the figures for `COc1ccc2c(c1)c(CC(=O)NCCCCNC(=O)Cc1ccc(Nc3ccc([N+](=O)[O-])c4nonc34)cc1)c(C)n2C(=O)c1ccc(Cl)cc1` [Compound 27ii, N-([2-{4-(7-nitrobenzo[1,2,5]oxadiazol-4-ylamino)phenyl}acetamido]but-4-yl)-2-{1-(4-chlorobenzoyl)-5-methoxy-2-methyl-1H-indol-3-yl]acetamide] were 5.7e-07 M and 500 nM.
The corresponding values for `CC[N+](CC)=c1ccc2c(-c3ccccc3)c(C)c(/C=C/C=C3/N(CCCCCC(=O)NCCCCNC(=O)Cc4c(C)n(C(=O)c5ccc(Cl)cc5)c5ccc(OC)cc45)c4ccc(S(=O)(=O)[O-])cc4C3(C)C)oc-2c1` [Compound 27ttt] are 8.9e-07 M and 1000 nM.
As to `COC(=O)c1cc(-c2ccc(C)cc2)n(-c2ccc(S(N)(=O)=O)cc2)n1` [Compound 30b], the IC50 at COX-2 [1] (Table 2, macrophage assay (M), read-out: IC50 COX-2) came to 1.1e-07 M; on COX-2 [2] (Table 2), 920 nM.
Regarding `COc1ccc2c(c1)c(CC(=O)NCCCCNC(=O)c1ccc(C3=c4cc5c6c(c4Oc4c3cc3c7c4CCCN7CCC3)CCC[N+]=6CCC5)c(C(=O)[O-])c1)c(C)n2C(=O)c1ccc(Cl)cc1` [Compound 27eee], the values for the IC50 on COX-2 [1] (read-out: IC50 in RAW 264.7 cells) and at COX-2 [2] (Table 3) were 3.2e-07 M and 700 nM, respectively.
